This is an account of results in patent US20070270421A1, “Novel pyridine Derivative and Pyrimidine Derivative (1)” (priority 2004, published 2007).

Structures are written as SMILES.

The assay deals with T1, HGFR (His6-HGFR cytoplasmic domain) (Homo sapiens, UniProt P08581).
T1 construct: made in house; host or cells: Spodoptera frugiperda Sf9 insect cells (baculovirus, pFastBac-HT)
T1 sequence (P08581 956-1390 limits assumed): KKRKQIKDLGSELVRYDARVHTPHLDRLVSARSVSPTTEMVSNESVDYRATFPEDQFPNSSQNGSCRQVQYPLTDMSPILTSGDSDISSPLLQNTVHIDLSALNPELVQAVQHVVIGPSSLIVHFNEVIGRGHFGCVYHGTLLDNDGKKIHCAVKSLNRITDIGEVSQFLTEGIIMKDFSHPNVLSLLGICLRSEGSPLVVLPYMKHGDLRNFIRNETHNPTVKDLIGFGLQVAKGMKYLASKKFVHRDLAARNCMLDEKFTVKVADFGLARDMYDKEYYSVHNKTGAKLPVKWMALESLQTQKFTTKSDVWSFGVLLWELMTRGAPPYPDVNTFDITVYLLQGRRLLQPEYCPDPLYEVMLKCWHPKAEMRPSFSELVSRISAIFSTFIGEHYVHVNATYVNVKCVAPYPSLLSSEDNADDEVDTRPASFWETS
Description: Inhibitory activity against HGFR tyrosine kinase activity (HTRF). It counts as biochemical. The conditions noted are these: biotin-poly(GT), ATP, 30° C. 10 min, read-out: IC50 (concentration necessary to inhibit HGFR kinase activity by 50%). The method, boiled down: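 Baculovirus/Sf9-expressed N-terminal His6-tagged HGFR cytoplasmic domain (from Lys974), Ni-NTA purified, phosphorylated biotin-poly(GT) in Hepes pH 7.4 with MgCl2/MnCl2. ATP added as 4 μM solution; 10 min at 30° C., stopped with EDTA. Phosphotyrosine product detected by HTRF.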
Turning to `CN(C)[C@@H]1CCN(C(=O)Nc2cc(Oc3ccc(NC(=S)NC(=O)Cc4ccccc4)cc3F)ccn2)C1` [Example 245, 2-{[(3R)-3-Dimethylaminopyrrolidin-1-yl]carbonylamino}-4-{2-fluoro-4-[3-(2-phenylacetyl)thioureido]phenoxy}pyridine], the IC50 was found to be 81 nM. For the molecule `CN(C)[C@H]1CCN(C(=O)Nc2cc(Oc3ccc(NC(=S)NC(=O)Cc4ccccc4)cc3F)ccn2)C1` [Example 246, 2-{[(3S)-3-Dimethylaminopyrrolidin-1-yl]carbonylamino}-4-{2-fluoro-4-[3-(2-phenylacetyl)thioureido]phenoxy}pyridine], the IC50 came to 79 nM.

`CN(C)[C@H]1CCN(C(=O)Nc2cc(Oc3ccc(NC(=O)NC(=O)Cc4ccccc4)cc3F)ccn2)C1` [Example 250, 2-{[(3S)-3-Dimethylaminopyrrolidin-1-yl]carbonylamino}-4-{2-fluoro-4-[3-(2-phenylacetyl)ureido]phenoxy}pyridine]: the IC50 came to 68 nM. Then `CN(C)[C@H]1CCN(C(=O)Nc2cc(Oc3ccc(NC(=S)NC(=O)Cc4ccc(F)cc4)cc3F)ncn2)C1` [Example 254, 4-{[(3S)-3-Dimethylaminopyrrolidin-1-yl]carbonylamino}-6-(2-fluoro-4-{3-[2-(4-fluorophenyl)acetyl]thioureido}phenoxy)pyrimidine], with 83 nM; and `O=C(Cc1ccccc1)NC(=S)Nc1ccc(Oc2ccnc(NC(=O)N3CCC(N4CCOCC4)CC3)c2)c(F)c1` [Example 258, 4-{2-Fluoro-4-[3-(2-phenylacetyl)thioureido]phenoxy}-2-{[4-(morpholin-4-yl)piperidin-1-yl]carbonylamino}pyridine], with 100 nM. The figure for `O=C(Cc1ccccc1)NC(=S)Nc1ccc(Oc2ccnc(NC(=O)N3CC(N4CCCC4)C3)c2)c(F)c1` [Example 261, 3-(Pyrrolidin-1-yl)azetidine-1-carboxylic acid {4-[2-fluoro-4-(3-phenylacetylthioureido)phenoxy]pyridin-2-yl}amide] is 100 nM; for `CN1CC[C@H](N(C)C(=O)Nc2cc(Oc3ccc(NC(=S)NC(=O)Cc4ccc(F)cc4)c(F)c3)ncn2)C1` [Example 281, 3-[6-(3-Fluoro-4-{3-[2-(4-fluorophenyl)acetyl]thioureido}phenoxy)pyrimidin-4-yl]-1-methyl-1-[(3S)-1-methylpyrrolidin-3-yl]urea] it is 28 nM; for `CCN1CCC(N(C)C(=O)Nc2cc(Oc3ccc(NC(=S)NC(=O)Cc4ccc(F)cc4)cc3F)ncn2)CC1` [Example 285, 1-(1-Ethylpiperidin-4-yl)-3-[6-(2-fluoro-4-{3-[2-(4-fluorophenyl)acetyl]thioureido}phenoxy)pyrimidin-4-yl]-1-methylurea] it is 51 nM. On to `CN(C(=O)Nc1cc(Oc2ccc(NC(=S)NC(=O)Cc3ccc(F)cc3)cc2F)ncn1)C1CCOCC1` [Example 288, 3-[6-(2-Fluoro-4-{3-[2-(4-fluorophenyl)acetyl]thioureido}phenoxy)pyrimidin-4-yl]-1-methyl-1-(tetrahydropyran-4-yl)urea], for which the IC50 amounted to 16 nM.

Turning to `CN1CCC(N(C)C(=O)Nc2cc(Oc3ccc(NC(=S)NC(=O)Cc4ccc(F)cc4)c(F)c3)ccn2)CC1` [Example 289, 3-[4-(3-Fluoro-4-{3-[2-(4-fluorophenyl)acetyl]thioureido}phenoxy)pyridin-2-yl]-1-methyl-1-(1-methylpiperidin-4-yl)urea], the IC50 was 67 nM.

Consider `CN1CCC(N(C)C(=O)Nc2cc(Oc3ccc(NC(=O)NC(=O)Cc4ccc(F)cc4)c(F)c3)ccn2)CC1` [Example 290, 3-[4-(3-Fluoro-4-{3-[2-(4-fluorophenyl)acetyl]ureido}phenoxy)pyridin-2-yl]-1-methyl-1-(1-methylpiperidin-4-yl)urea], for which the IC50 was determined as 130 nM. On to `CC(=O)N1CCC(N(C)C(=O)Nc2cc(Oc3ccc(NC(=S)NC(=O)Cc4ccc(F)cc4)cc3F)ccn2)CC1` [Example 301, 1-(1-Acetylpiperidin-4-yl)-3-[4-(2-fluoro-4-{3-[2-(4-fluorophenyl)acetyl]thioureido}phenoxy)pyridin-2-yl]-1-methylurea], for which the IC50 was found to be 28 nM.
